Measurements published in US6916843B1, “Anti-inflammatory actions of cytochrome P450 expoxygenase-derived eicosanoids” (The United States of America as represented by the …, priority 1999, dated 2005).

What was measured:
RelA = assay: Cellular localization of RelA in TNF-α-stimulated endothelial cells; format: cell-based; settings: co-treatment with TNF-α
Description: Co-treatment with [11,12]-EET prevented the nuclear accumulation of RelA. Since the nuclear translocation of RelA requires the degradation of its endogenous cytoplasmic inhibitor, inhibitor kappa B (IκB-α), we followed the fate of IκB-α after TNF-α stimulation in the presence or absence of [11,12]-EET. Stimulation of human endothelial cells with TNF-α caused a rapid and almost complete disappearance of IκB-α which was prevented by co-treatment with [11,12]-EET, but not [14,15]-EET.

ICAM-1 expression = assay: Cell-surface enzyme immunoassay of TNF-α-induced ICAM-1 expression in endothelial cells; format: cell-based, human; settings: 100 nM, TNF-α 10 ng/ml
Procedure: FIG. 2 is a set of bar graphs of cell-surface enzyme immunoassays. […] The difference between treatment with TNF-α alone and in the presence of [11,12]-EET were statistically significant (*p<0.05, **p<0.01), OD, optical density. […] After stimulation with TNF-α (10 ng/ml) in the presence or absence of EET, promoter activity was determined relative to basal activity. *p<0.01 vs. TNF-α alone.
To determine the biological effects of EETs, we treated tumor necrosis factor alpha (TNF-α)-stimulated human endothelial cells with physiological relevant concentrations (1-100 nM) of [5,6]-EET, [8,9]-EET, [11,12]-EET, [14,15]-EET, [11,12]-DHET.

F2-isoprostanes = assay: Cellular F2-isoprostanes in BAECs exposed to hypoxia-reoxygenation (GC/MS); format: cell-based, bovine; settings: CYP2J2-transfected vs GFP-transfected BAECs
Procedure: F2-Isoprostane levels in BAECs were measured using a modification of the procedure described by Morrow & Roberts, 300 Methods Enzymol. 3-12 (1999). Briefly, cells were collected by treatment with trypsin and stored at −80° C. until analyzed. BHT was added to the freshly-thawed samples to inhibit oxidation during sample processing. The samples (4×10^7 cells) were incubated with KOH for 30 minutes at 40° C. The samples were then acidified to pH 3.0, 3 ng of a d4 8-iso-PGF2α internal standard was added, and the precipitated protein was removed by centrifugation at 375×g. The F2-isoprostanes in the supernatant were concentrated by passage over C18 Sep-pak (Millipore, Marlborough, Mass.), followed by Silica Sep-pak (Millipore) columns. The eluant, containing a mixture of the d4 internal standard and endogenous cellular F2-isoprostanes, was dried under nitrogen and derivatized to the pentaflorobenzyl (PFB) ester using […] according to the protocol of Schweer et al., 32 J. Mass Spectrom. 1362-1370 (1997). The PFB-derivatized isoprostanes were purified by TLC, and the bands were collected based on comparison of their Rf values to those of authentic standards. […] Quantitation was done by GC/NCI/MS on a 25m Supelco DB 5 column (Supelco, Bellefonte, Pa.). […]

CYP2J2 = molecular target: T1, CYP2J2 (Homo sapiens, UniProt P51589); assay: Arachidonic acid epoxygenase metabolite formation in CYP2J2-transfected bovine aortic endothelial cells (HPLC)
T1 construct: The CYP2J2 cDNA (1.9 kb) or GFP cDNA (0.75 kb) were subcloned into the plasmid pcDNA3.1; expressed in transfected cells; host or cells: bovine aortic endothelial cells (BAECs), transient transfection with pcDNA3.1/CYP2J2
T1 sequence (P51589 1-502): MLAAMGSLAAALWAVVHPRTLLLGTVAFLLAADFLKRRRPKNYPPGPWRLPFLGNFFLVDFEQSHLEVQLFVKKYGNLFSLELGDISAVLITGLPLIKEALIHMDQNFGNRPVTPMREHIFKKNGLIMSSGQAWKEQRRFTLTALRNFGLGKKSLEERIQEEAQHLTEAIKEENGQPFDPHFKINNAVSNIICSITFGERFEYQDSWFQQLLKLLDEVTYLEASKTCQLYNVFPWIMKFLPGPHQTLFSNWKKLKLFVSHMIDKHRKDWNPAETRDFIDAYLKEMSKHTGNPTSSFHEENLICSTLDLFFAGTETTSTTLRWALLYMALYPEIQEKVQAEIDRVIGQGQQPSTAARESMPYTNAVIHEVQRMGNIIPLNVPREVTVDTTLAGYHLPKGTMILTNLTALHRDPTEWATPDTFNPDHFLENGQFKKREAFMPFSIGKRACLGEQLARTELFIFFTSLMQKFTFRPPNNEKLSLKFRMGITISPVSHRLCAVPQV
Procedure: To study the formation of EETs by CYP2J2 in endothelial cells, we measured EET synthesis from bovine endothelial cells transfected with CYP2J2 cDNA. Early passage bovine aortic endothelial cells were grown to 60-70% confluence and transfected with either pcDNA3.1 or pcDNA3.1/CYP2J2 using Fugene™ 6 reagent (Boehringer Mannheim Corp.) according to the manufacturer's instructions. Using this method, the transfection efficiency was 10-20%. Forty-eight hours post-transfection, cells were washed twice with phosphate-buffered saline and incubated with freshly purified [^3H]arachidonic acid (185 Ci/mmol, 4-5 μCi/175 mm^2 flask) and unlabeled arachidonic acid (10 μM) was added before addition of arachidonic acid. At various time points, the media and cells were removed and extracted with diethyl ether. The combined organic phases were dried under a nitrogen stream, resolved by reverse-phase high performance liquid chromatography (HPLC) and quantified by liquid scintillation as described by Wu et al., 271 J. Biol. Chem. 3460 (1996). […]
These control GFP-transfected cells metabolized radiolabeled arachidonic acid to epoxygenase metabolites (EETs and DHETs) at a rate of ˜8 pmol/min/10^7 cells (FIG. 6). Endothelial cell arachidonic acid metabolism was determined as follows: Forty-eight hours after transfection with either pcDNA3.1/GFP or pcDNA3.1/CYP2J2, BAECs were incubated with freshly purified [5, 6, 8, 9, 11, 12, 14, 15-^3H]arachidonic acid (185 Ci/mmol, 4-5 μCi/175-mm^2 flask) in serurm-free culture medium at 37° C. for 30-120 min. […] The BAECs and culture medium were then collected and the reaction products extracted into ethyl ether, dried under a nitrogen stream, analyzed by reverse-phase HPLC, and quantified by on-line liquid scintillation using a Radiomatic Flo-One β detector (Radiomatic Instruments, Tampa, Fla.) as described (Wu et al., 271 J. Biol. Chem. 12551 (1996), Node et al., 285 Science 1276-1279 (1999)). […]

| Compound | effect on TNF-α-induced nuclear accumulation of RelA (RelA) | inhibition of ICAM-1 expression (ICAM-1 expression) | hypoxia-reoxygenation-induced increase in cellular F2-isoprostanes (F2-isoprostanes) | rate of formation of epoxygenase metabolites (EETs and DHETs) (CYP2J2) [pmol/minute/10^7 cells] |
| --- | --- | --- | --- | --- |
| CCCCC/C=C\C[C@H]1O[C@H]1C/C=C\C/C=C\CCCC(=O)O [[11,12]-EET] | prevented | inhibited |  |  |
| CYP2J2: CYP2J2 cDNA (1.9 kb) subcloned into plasmid pcDNA3.1, transfected into endothelial cells |  |  | significantly attenuated | 17.8±2.3 |
